Assays:
[1] = target: T1, human histamine H4 receptor (Homo sapiens, UniProt Q9H3N8); assay: biochemical
Mast cells = assay: Mast cell chemotaxis assay (histamine-induced, transwell); format: cell-based; details: 10 μM histamine; HR antagonist 1 μM
Procedure: Mast Cell Chemotaxis Assay
Mast cell accumulation in mucosal epithelia is a well-known characteristic of allergic rhinitis and asthma. Transwells (Costar, Cambridge, Mass.) of a pore size 8 μm were coated with 100 μL of 100 ng/mL human fibronectin (Sigma) for 2 h at room temperature. […] Mast cells (2×10^5/well) were added to the top chamber. The plates were incubated for 3 h at 37° C. Transwells were removed, and the cells in the bottom chamber were counted for sixty seconds using a flow cytometer.

[2] = target: T1, human histamine H4 receptor; assay: Binding assay on recombinant human histamine H4 receptor (3H-histamine displacement); details: read-out: Binding Assay Ki; repeated in the chemotaxis table

T1 sequence (Q9H3N8 whole entry): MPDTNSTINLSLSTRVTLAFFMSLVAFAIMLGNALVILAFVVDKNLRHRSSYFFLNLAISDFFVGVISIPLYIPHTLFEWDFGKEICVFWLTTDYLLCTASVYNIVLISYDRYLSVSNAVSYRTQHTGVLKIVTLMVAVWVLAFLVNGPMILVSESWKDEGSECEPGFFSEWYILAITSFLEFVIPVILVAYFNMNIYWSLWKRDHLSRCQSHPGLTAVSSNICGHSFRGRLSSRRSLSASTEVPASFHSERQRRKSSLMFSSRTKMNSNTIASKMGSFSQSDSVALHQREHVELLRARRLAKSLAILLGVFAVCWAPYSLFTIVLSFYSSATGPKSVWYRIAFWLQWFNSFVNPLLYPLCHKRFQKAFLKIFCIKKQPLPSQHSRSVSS

SMILES | Ki [1] | % Inh (Mast cells) | Ki [2]
O=C(c1nc2cc(Cl)ccc2[nH]1)N1CCNCC1 [Example 7, (5-Chloro-1H-benzoimidazol-2-yl)-piperazin-1-yl-methanone] | 87 nM | 8% | 87 nM
Cc1ccc2[nH]c(C(=O)NC3CC4CCC(C3)N4C)nc2c1 (stereo not shown) [Example 25, 5-Methyl-1H-benzoimidazole-2-carboxylic acid (8-methyl-8-aza-bicyclo[3.2.1]oct-3-yl)-amide] | 613 nM | – | 613 nM
CN1CCN(C(=O)c2nc3cc(F)c(F)cc3[nH]2)CC1 [Example 9, (5,6-Difluoro-1H-benzoimidazol-2-yl)-(4-methyl-piperazin-1-yl)-methanone] | 28 nM | – | 28 nM
